Data: US11149031B2, “Substituted N-(3-fluoropropyl)-pyrrolidine compounds, processes for their preparation and therapeutic uses thereof” (SANOFI, priority 2016, dated 2021)

How the values were obtained:
[1] = tested on: MCF7 cells (breast tumor cells) WT; test: Test B: cell proliferation/viability assay (CellTiter-Glo) on MCF7 WT; type: cell-based; settings: Homo sapiens, MCF7, 168 h, 7 days of compound exposure
Procedure, shortened: (§1)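 Compound exposure lasted 7 days (3-0.000001 μM final, 9 points) in phenol red-free MEM with 5% charcoal dextran-stripped FBS. The mutant lines grew without estradiol. Luminescent signal, minus medium-only background, was expressed as percent of untreated cells.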

[2] = tested on: MCF7 cells expressing mutant estrogen receptor Tyr 537 Ser; test: Test B: cell proliferation/viability assay (CellTiter-Glo) on MCF7 Tyr 537 Ser mutant; type: cell-based; settings: Homo sapiens, MCF7, 168 h, MCF7 cells expressing ER Tyr 537 Ser mutant, 7 days of compound exposure, read-out: proliferation MCF7 Y537S IC50
Procedure, shortened: as §1

[3] = molecular target: ERα in MCF7 cells (Homo sapiens (Human), UniProt P03372); test: Test C: estrogen receptor degradation activity, ERα in cell western assay in MCF7 cells; type: cell-based; settings: for DC50: 4 hours post compound addition, ERα in cell western, read-out: Degradation IC50; for % Degradation at 3 μM: 4 hours, relative to fulvestrant
Procedure, shortened: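 Steps: seed MCF7 in phenol red-free medium containing 5% charcoal-dextran stripped FBS; next day add compound, final 3–0.000018 μM; after 4 h fix with 5% formalin plus 0.1% Triton; stain ERα overnight, then secondary at 37 °C for 60 min with Syto-64 at 2 μM; scan green and red intensities.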

[4] = molecular target: His6-ERα298-554 Y537S mutant (ERα ligand-binding domain) (Homo sapiens (Human), UniProt P03372, Y537S); test: Test A: biochemical antagonist activity, LanthaScreen TR-FRET ERα coactivator assay, Y537S mutant; settings: asterisk (*): protocol using 10 nM estradiol; read-out: Antagonism Y537S IC50
Procedure, shortened: (§2)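 IC50 values come from a 4-parameter logistic fit of the 520:495 nm TR-FRET ratio after overnight room-temperature incubation. The mix held 0.5 nM ERα 298–554 LBD, Tb-labelled anti-His6 antibody, 250 nM PGC1a peptide and 3 nM or 10 nM estradiol, pH 7.4 phosphate buffer with DTT.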

[5] = molecular target: His6-ERα298-554 D538G mutant (ERα ligand-binding domain) (Homo sapiens (Human), UniProt P03372, D538G); test: Test A: biochemical antagonist activity, LanthaScreen TR-FRET ERα coactivator assay, D538G mutant; settings: asterisk (*): protocol using 10 nM estradiol; read-out: Antagonism D538G IC50
Procedure, shortened: as §2

[6] = molecular target: His6-ERα298-554 WT (ERα ligand-binding domain) (Homo sapiens (Human), UniProt P03372); test: Test A: biochemical antagonist activity, LanthaScreen TR-FRET ERα coactivator assay, WT; settings: asterisk (*): protocol using 10 nM estradiol; read-out: Antagonism WT IC50
Procedure, shortened: as §2

[7] = tested on: MCF7 cells expressing mutant estrogen receptor Asp 538 Gly; test: Test B: cell proliferation/viability assay (CellTiter-Glo) on MCF7 Asp 538 Gly mutant; type: cell-based; settings: Homo sapiens, MCF7, 168 h, MCF7 cells expressing ER Asp 538 Gly mutant, 7 days of compound exposure, read-out: proliferation MCF7 D538G IC50
Procedure, shortened: as §1

Chain of ERα in MCF7 cells (P03372 whole entry): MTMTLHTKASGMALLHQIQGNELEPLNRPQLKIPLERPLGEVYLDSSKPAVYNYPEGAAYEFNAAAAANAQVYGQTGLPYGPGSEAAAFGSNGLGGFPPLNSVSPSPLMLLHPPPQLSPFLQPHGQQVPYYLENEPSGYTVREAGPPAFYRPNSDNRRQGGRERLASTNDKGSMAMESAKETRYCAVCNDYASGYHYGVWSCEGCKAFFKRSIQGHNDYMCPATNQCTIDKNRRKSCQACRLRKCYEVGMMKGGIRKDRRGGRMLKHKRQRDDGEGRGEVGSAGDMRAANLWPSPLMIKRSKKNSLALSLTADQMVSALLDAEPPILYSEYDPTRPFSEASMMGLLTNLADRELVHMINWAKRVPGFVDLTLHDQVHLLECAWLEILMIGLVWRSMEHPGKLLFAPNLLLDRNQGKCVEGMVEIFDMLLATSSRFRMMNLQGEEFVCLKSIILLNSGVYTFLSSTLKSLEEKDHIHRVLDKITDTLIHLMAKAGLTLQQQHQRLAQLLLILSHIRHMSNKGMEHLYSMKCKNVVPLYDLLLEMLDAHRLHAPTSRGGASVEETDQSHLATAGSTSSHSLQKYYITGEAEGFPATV
Chain of His6-ERα298-554 Y537S mutant (ERα ligand-binding domain) (P03372 298-554 Y537S): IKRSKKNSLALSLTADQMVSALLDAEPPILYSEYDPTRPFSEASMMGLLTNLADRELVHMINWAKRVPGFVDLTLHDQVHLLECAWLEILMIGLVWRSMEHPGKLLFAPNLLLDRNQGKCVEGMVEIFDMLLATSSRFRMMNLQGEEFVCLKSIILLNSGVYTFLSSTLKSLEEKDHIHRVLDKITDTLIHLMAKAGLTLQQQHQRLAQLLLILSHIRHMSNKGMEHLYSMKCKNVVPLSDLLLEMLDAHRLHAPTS
Chain of His6-ERα298-554 D538G mutant (ERα ligand-binding domain) (P03372 298-554 D538G): as the sequence (P03372 298-554 Y537S) above, with S240Y, D241G counted along it
Chain of His6-ERα298-554 WT (ERα ligand-binding domain) (P03372 298-554): as the sequence (P03372 298-554 Y537S) above, with S240Y counted along it

SMILES: Oc1ccc2c(c1)SCC(c1ccc(Cl)nc1F)=C2c1ccc(O[C@H]2CCN(CCCF)C2)cc1 [Example 55, 3-(6-chloro-2-fluoro-3-pyridyl)-4-[4-[(3S)-1-(3-fluoropropyl)pyrrolidin-3-yl]oxyphenyl]-2H-thiochromen-7-ol]
- IC50 [1]: 0.7 nM
- IC50 [2]: 5 nM
- DC50 [3]: 0.2 nM
- % Degradation at 3 μM [3]: 88%
- IC50 [4]: 444 nM
- IC50 [5]: 971 nM
- IC50 [6]: 48 nM
- IC50 [7]: 0.3 nM

SMILES: Cc1ccc(C2=C(c3ccc(O[C@H]4CCN(CCCF)C4)cc3)c3ccc(O)cc3SC2)c(Cl)n1 [Example 56, 3-(2-chloro-6-methyl-3-pyridyl)-4-[4-[(3S)-1-(3-fluoropropyl)pyrrolidin-3-yl]oxyphenyl]-2H-thiochromen-7-ol]
- IC50 [1]: 0.6 nM
- IC50 [2]: 14 nM
- DC50 [3]: 0.2 nM
- % Degradation at 3 μM [3]: 86%
- IC50 [4]: 358 nM
- IC50 [5]: 721 nM
- IC50 [6]: 37 nM
- IC50 [7]: 0.7 nM

SMILES: Cc1ccc(C2=C(c3ccc(O[C@H]4CCN(CCCF)C4)cc3)c3ccc(O)cc3[S+]([O-])C2)c(F)c1 (stereo partly drawn) [Example 57, 3-(2-fluoro-4-methyl-phenyl)-4-[4-[(3S)-1-(3-fluoropropyl)pyrrolidin-3-yl]oxyphenyl]-1-oxo-2H-thiochromen-7-ol]
- IC50 [1]: 33 nM
- IC50 [2]: > 999 nM
- DC50 [3]: 3 nM
- % Degradation at 3 μM [3]: 89%
- IC50 [4]: > 4000 nM
- IC50 [5]: > 4000 nM
- IC50 [6]: 1070 nM
- IC50 [7]: > 999 nM

SMILES: CC(C)(C)OC(=O)N1CCOc2ccc(C3=C(c4ccc(O[C@H]5CCN(CCCF)C5)cc4)c4ccc(O)cc4SC3)cc21 [Example 59, tert-butyl 6-[4-[4-[(3S)-1-(3-fluoropropyl)pyrrolidin-3-yl]oxyphenyl]-7-hydroxy-2H-thiochromen-3-yl]-2,3-dihydro-1,4-benzoxazine-4-carboxylate]
- IC50 [1]: 27 nM
- IC50 [2]: > 999 nM
- DC50 [3]: 0.9 nM
- % Degradation at 3 μM [3]: 81%
- IC50 [4]: > 4000 nM
- IC50 [5]: > 4000 nM
- IC50 [6]: 879 nM
- IC50 [7]: > 999 nM

SMILES: Oc1ccc2c(c1)SCC(c1ccc(OCF)cc1)=C2c1ccc(O[C@H]2CCN(CCCF)C2)cc1 [Example 60, 3-[4-(fluoromethoxy)phenyl]-4-[4-[(3S)-1-(3-fluoropropyl)pyrrolidin-3-yl]oxyphenyl]-2H-thiochromen-7-ol]
- IC50 [1]: 0.5 nM
- IC50 [2]: 3 nM
- DC50 [3]: 0.2 nM
- % Degradation at 3 μM [3]: 73%
- IC50 [4]: 103 nM
- IC50 [5]: 215 nM
- IC50 [6]: 9 nM
- IC50 [7]: 0.4 nM

SMILES: Oc1ccc2c(c1)SCC(c1ccc(CF)cc1)=C2c1ccc(O[C@H]2CCN(CCCF)C2)cc1 [Example 61, 3-[4-(fluoromethyl)phenyl]-4-[4-[(3S)-1-(3-fluoropropyl)pyrrolidin-3-yl]oxyphenyl]-2H-thiochromen-7-ol]
- IC50 [1]: 2 nM
- IC50 [2]: 17 nM
- DC50 [3]: 0.2 nM
- % Degradation at 3 μM [3]: 82%
- IC50 [4]: 437 nM
- IC50 [5]: 686 nM
- IC50 [6]: 37 nM
- IC50 [7]: 0.6 nM

SMILES: Oc1ccc2c(c1)SCC(c1ccc(C(F)F)cc1F)=C2c1ccc(O[C@H]2CCN(CCCF)C2)cc1 [Example 62, 3-[4-(difluoromethyl)-2-fluoro-phenyl]-4-[4-[(3S)-1-(3-fluoropropyl)pyrrolidin-3-yl]oxyphenyl]-2H-thiochromen-7-ol]
- IC50 [1]: 0.4 nM
- IC50 [2]: 6 nM
- DC50 [3]: 0.2 nM
- % Degradation at 3 μM [3]: 80%
- IC50 [4]: 271 nM
- IC50 [5]: 523 nM
- IC50 [6]: 27 nM
- IC50 [7]: 0.2 nM
